In patent US20110118274A1, “PROTEASOME INHIBITORS AND THEIR USE IN TREATING PATHOGEN INFECTION AND CANCER” (CORNELL RESEARCH FOUNDATION, INC., priority 2007, published 2011):

Tested on: Mtb PrcAB-OG
Experiment: biochemical
Format: biochemical, Mycobacterium tuberculosis

CSc1sc(C)cc1-c1nsc(=O)o1 [GL5]
Selectivity: 63.8
